In paper PMC4303209, “A novel phosphatidylinositol 3-kinase (PI3K) inhibitor directs a potent FOXO-dependent, p53-independent cell cycle arrest phenotype characterized by the differential induction of a subset of FOXO-regulated genes” (Breast Cancer Research : BCR, 2014):
pEC50: −log10 of the molar value.

Legend:
[1] = set-up: method as in PMID 17575152; details: cited from earlier work
[2] = tested on: T47D; assay: Proliferation assay (MTT, 72 hours); format: cell-based; details: Homo sapiens
Protocol: (§1) Cells were seeded in 96-well microtitre plates. Compounds (in DMSO) were added to each well (at a final concentration of 10 μM). The medium was removed from the cells and replaced with 0.2 ml of medium containing either compound for 72 hours and then processed for MTT assay (Promega Corp, Madison, WI, USA) N = 6.
(§2) Figure 1 Cellular response to ETP-45658. […] Seventy-two hours post treatment, MTT assays were conducted. (B) Dose- and time-dependent analysis of Ser473 phosphorylation of AKT phosphorylation by 100nM ETP-45658 or PI-103 treatment. MCF-7 or U2OS cells were treated with the indicated concentrations (μM) of ETP-45658 (or PI-103) for four hours, then total protein was extracted and immunoblotted. For nuclear FOXO analysis, nuclear protein fractions were collected four hours post ETP-45658 (or PI-103) treatment. Nuclear FOXO3a levels were measure by immunoblotting. Nuclear fractions were confirmed by probing for lamin A/C. (C) FACS profile of MCF-7 or U2OS following 100 nM ETP-45658 treatment (20,000 events scored, N = 5). (D) Heat map for the top 100 differentially expressed genes based on hierarchical clustering using Euclidean distance metric. Red and green indicate genes that induced or repressed respectively by ETP-45658 or PI-103. Black indicates no change (N = 4). […] Numbers indicate number of genes that are exclusive to that particular category.

[3] = tested on: PC3; assay: Proliferation assay (MTT, 72 hours); format: cell-based; details: Homo sapiens, PC-3
Protocol: as §1, §2

[4] = tested on: HCT-116; assay: Proliferation assay (MTT, 72 hours); format: cell-based; details: Homo sapiens
Protocol: as §1, §2

[5] = tested on: MCF-7; assay: Proliferation assay (MTT, 72 hours); format: cell-based; details: Homo sapiens, MCF7
Protocol: as §1, §2

[6] = tested on: MV4.11; assay: Proliferation assay (MTT, 72 hours); format: cell-based; details: Homo sapiens
Protocol: as §1, §2

[7] = tested on: NCIH460; assay: Proliferation assay (MTT, 72 hours); format: cell-based; details: Homo sapiens, NCI-H460
Protocol: as §1, §2

[8] = tested on: PC3, MCF7, MV4.11, T47D, HCT-116 and NCIH46 cells; assay: cells; format: cell-based; details: Homo sapiens; range over all tested cell lines; MTT 72 hours; read-out: EC50 value for the inhibition of proliferation, inhibitory range
Excerpt: We determined the EC50 value for the inhibition of proliferation in each of the following cell lines, PC3, MCF7, MV4.11, T47D, HCT-116 and NCIH46 cells.

[9] = tested on: MCF-7 breast cancer cells; assay: Quantitative real time PCR (qRT-PCR) of selected genes; format: cell-based, human
Protocol: Total RNA was extracted by using Tri-reagent (Sigma-Aldrich). Real-time PCR was performed on a CFX-96 PCR machine (BioRad) using the SsoFastSYBR™ green master mix (BioRad) and following the manufacturer’s guidelines. Data was analysed as described in [29] using the 2^-ΔΔCT methodology.
Figure 4 Genes regulated by FOXO transcription factor and validation of key differentially regulated genes. […] Gene expression in MCF-7 breast cancer cells treated at six and twelve hours with (B) 10 nM ETP-45658 or (C) 10 nM PI-103. In each graph, error bars indicate +/− standard deviation with each gene and condition evaluated in triplicate from N = 3 independent experiments. For each analysis P values are shown (<0.05 is considered significant).
Our genome-wide array and in vitro studies have elucidated that the predominant pathway activated following exposure to ETP-45658 (as well as following PI-103 treatment) was FOXO-mediated cell cycle arrest. […] To strengthen our findings further, we validated our genome-wide array results by quantitative real-time PCR (qRT-PCR). Based on our gene expression profiling data, we selected 11 differentially regulated key genes. […] In our last group, we selected the cyclin-dependent kinase inhibitor 1A (p21), which is regulated by both FOXO and p53, BCL2 binding component 3 (PUMA) and BCL2-associated X (BAX) that are regulated by p53. MCF-7 breast cancer cells were treated with ETP-45658 and six or twelve hours post treatment the total RNA was extracted. We evaluated the expression profile of each gene (normalised to GAPDH using the 2^-ΔΔCT method described in our Materials and methods section) (Figure 4B). […] This response was conserved between the MCF-7 breast cancer cell line (as we would predict based on our array studies) as well as the U2OS osteosarcoma cell line (data not shown).

[10] = tested on: FOXO3a promoter recruitment in MCF-7 or MDA-MB231 cells; assay: Chromatin immunoprecipitation (ChIP) for FOXO3a promoter recruitment; format: cell-based, human; details: by six hours post treatment
Protocol: Chromatin immunoprecipitation (ChIP) assays were performed essentially the same as described in [28]. Briefly, cells were fixed with 1% formaldehyde, and then whole-cell lysates were prepared. Protein lysate was subjected to ChIP with the indicated antibodies, followed by DNA purification (Invitrogen, Waltham, MA, USA). ChIP-enriched DNA was analyzed by PCR with the indicated primer sets (Table S1 in Additional file 3) purchased from NZYTech (Lisbon, Portugal). Visualization of bands was achieved using a BioRad Chemidoc XRS+ (BioRad) and quantified using the Image Lab software (BioRad).
Figure 5 Chromatin immunoprecipitation analysis for FOXO3a promoter recruitment. (A) Chromatin immunoprecipitation (ChIP) assays for FOXO3a following ETP-45658 treatment at three or six hours of MCF-7 or MDA-MB231 cells for […], CDKN1B, BCL2L11or FASLG. IgG indicates no specific antibody used and for simplicity, only inputs from our MCF-7 samples are shown. (B and C) Quantification of our ChIP gels normalised to inputs from each respective cell line. Error bars indicate standard deviation, N = 3.

[11] = tested on: nuclear FOXO3a; assay: Immunoblot of nuclear fractions for FOXO3a in MCF-7 or U2OS cells; format: cell-based, human; details: nuclear fractions of treated MCF-7 or U2OS cells
Protocol: as §2

Row | SMILES | aqueous solubility [1] | GI50 [2] [nM] | GI50 [3] [nM] | GI50 [4] [nM] | GI50 [5] [nM] | GI50 [6] [nM] | GI50 [7] [nM] | pEC50 [8] | NISCH expression (array and qRT-PCR) [9] | qRT-PCR CCND1 transcription ([9]; 10 nM) | qRT-PCR induction of p53-dependent genes [9] | qRT-PCR expression of CCNG2, Cited2 and BRCA1 ([9]; 10 nM, six or twelve hours) | qRT-PCR TRAIL, FASLG or BCL2L11 transcription ([9]; six hours post treatment) | qRT-PCR TRAIL, FASLG or BCL2L11 transcription ([9]; twelve hours post treatment) | FOXO3a promoter recruitment (CCNG2, CDKN1B, BCL2L11, FASLG) [10] | nuclear FOXO3a level [11]
1 | Oc1cccc(-c2nc(N3CCOCC3)c3oc4ncccc4c3n2)c1 [PI-103] | limited aqueous solubility | 340 | 50 | 1670 | 500 | 50 | 1310 | 5.75 to 7.31 | downregulated | significantly reduced | – | – | – | – | – | –
2 | Cn1ncc2c(N3CCOCC3)nc(-c3cccc(O)c3)nc21 [ETP-45658] | – | – | – | – | – | – | – | – | significantly upregulated | significantly reduced | no significant induction | highly significant induction | no significant change | slight increase (less than two-fold) | statistically significant FOXO3a promoter recruitment | significant accumulation
